Measurements as given in patent US5698515A, “Insulin-containing polymer composition for oral administration” (Institut Neftekhimicheskogo Sinteza Imeni A.V.Topchieva …, priority 1994, dated 1997).

What was measured:
[1] = test system: white rats with experimental diabetes (streptozotocin); experiment: Blood glucose in rats with streptozotocin-induced experimental diabetes; assay type: in vivo; conditions: diabetic rat, p.e. (subcutaneously), ± 8%
Protocol: Experimental diabetes is obtained (induced) in white rats of […], weighing 180 g., by way of intraperitoneally administered streptozotocin in the amount of 70 mg. for 1 kg. of weight. Synthesized polymers began to be introduced after the glucose level has exceeded 400 mg. %.
The procedure is conducted according to Example 12 with an equal amount of insulin administered subcutaneously in the form of solution.

rabbits [2] = experiment: Glucose concentration in blood of rabbits after oral administration of insulin hydrogels; assay type: in vivo; conditions: rabbit, orally, ± 8%
Protocol: 0.1 g. of a pre-dried crosslinked polyacrylamide, modified with ovomucoid, is placed in 1 ml. of an aqueous solution of insulin (insulin activity is 25 U/mg.) with a concentration of 1.0 mg./ml. per hour at room temperature. During this time limit the polymer swells completely and is ready to use. The synthesized hydrogel in an amount corresponding to 5 units of insulin per kg. of animal weight is administered to rabbits orally, using a catheter. Blood samples are collected after 30, 60, 90 and 120 minutes.
The procedure is conducted according to Example 1 using various crosslinked modified polymers, various concentrations of the insulin solution, various quantities of the cross-linked modified polymers and various amounts of ovomucoid.
The procedure is conducted according to Example 1 but using a nonmodified polyacrylamide hydrogel.
Rabbits are treated orally with an insulin solution in an amount of 7 U/kg. of animal weight, a mixture of ovomucoid (2.5 mg./kg. weight) and insulin (8 U/kg) or a modified hydrogel (200 mg./kg. weight).

rabbits [3] = conditions: subcutaneous injection, 0.23 units of insulin, cited from earlier work

## 14k: Control: porcine insulin solution administered subcutaneously to rats [Example 14k]
[1]; 0 min
  Glucose Conc. in Blood: 400 Mg./100 ml.
[1]; 30 min after administration
  Glucose Conc. in Blood: 160 Mg./100 ml.
[1]; 60 min after administration
  Glucose Conc. in Blood: 145 Mg./100 ml.
[1]; 90 min after administration
  Glucose Conc. in Blood: 150 Mg./100 ml.

## 15k: Control: porcine insulin solution given orally to rabbits, 7 U/kg [Example 15k]
Rabbits [2]; 0 min (start), 5 U insulin/kg in Ex. 1 (Ex. 15: 7 U/kg; Ex. 16: 8 U/kg + ovomucoid 2.5 mg/kg; Ex. 17: 200 mg/kg hydrogel)
  Glucose Conc. in Blood: 152 Mg./100 ml.
Rabbits [2]; 30 min after administration
  Glucose Conc. in Blood: 151 Mg./100 ml.
Rabbits [2]; 60 min after administration
  Glucose Conc. in Blood: 150 Mg./100 ml.
Rabbits [2]; 90 min after administration
  Glucose Conc. in Blood: 160 Mg./100 ml.

## insulin
Rabbits [3]; 150 min. after the injection
  glucose concentration in blood: 120 mg./100 ml.
  reduction of glucose concentration in blood: 74%
Rabbits [3]; before
  glucose concentration in blood, initial: 330 mg./100 ml.
